Laboratory results taken from PubChem BioAssay (NCI).
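In this assay, cells in 96-well plates receive the compound at five concentrations for 48 hours. Endpoints are linearly interpolated between the surrounding concentrations. Definition used: TGI = concentration required for complete inhibition of growth.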

Legend:
Test in all cases: DTP human tumour cell line panel, 48 h
HOP-62 NSCLC = test system: HOP-62 NSCLC
OVCAR-8 ovarian = test system: OVCAR-8 ovarian
CAKI-1 renal = test system: CAKI-1 renal
SK-MEL-28 melanoma = test system: SK-MEL-28 melanoma
COLO 205 colon = test system: COLO 205 colon
SN12C renal = test system: SN12C renal
SR leukemia = test system: SR leukemia
HCT-116 colon = test system: HCT-116 colon
OVCAR-5 ovarian = test system: OVCAR-5 ovarian
DU-145 prostate = test system: DU-145 prostate
U251 CNS = test system: U251 CNS
UACC-257 melanoma = test system: UACC-257 melanoma
SW-620 colon = test system: SW-620 colon
EKVX NSCLC = test system: EKVX NSCLC
SF-539 CNS = test system: SF-539 CNS
SK-MEL-5 melanoma = test system: SK-MEL-5 melanoma
SNB-75 CNS = test system: SNB-75 CNS
A498 renal = test system: A498 renal
NCI/ADR-RES ovarian = test system: NCI/ADR-RES ovarian
T-47D breast = test system: T-47D breast

Compound | TGI (HOP-62 NSCLC) [µM] | TGI (OVCAR-8 ovarian) [µM] | TGI (CAKI-1 renal) [µM] | TGI (SK-MEL-28 melanoma) [µM] | TGI (COLO 205 colon) [µM] | TGI (SN12C renal) [µM] | TGI (SR leukemia) [µM] | TGI (HCT-116 colon) [µM] | TGI (OVCAR-5 ovarian) [µM] | TGI (DU-145 prostate) [µM] | TGI (U251 CNS) [µM] | TGI (UACC-257 melanoma) [µM] | TGI (SW-620 colon) [µM] | TGI (EKVX NSCLC) [µM] | TGI (SF-539 CNS) [µM] | TGI (SK-MEL-5 melanoma) [µM] | TGI (SNB-75 CNS) [µM] | TGI (A498 renal) [µM] | TGI (NCI/ADR-RES ovarian) [µM] | TGI (T-47D breast) [µM]
c1ccc2c(c1)nn1c3ccc4nonc4c3[n-][n+]21 | > 100 | > 100 | > 100 | > 100 | > 100 | > 100 | > 100 | > 100 | > 100 | > 100 | > 100 | > 100 | > 100 | > 100 | > 100 | > 100 | > 100 | > 100 | > 100 | 
CC(C)(C)c1cc2c(c(C(C)(C)C)c1O)CC(=O)O2 | 92.8 | > 100 |  | > 100 | 37.6 | > 100 |  | > 100 | > 100 | > 100 | > 100 | 75.7 | > 100 | > 100 | 62.5 | 32.2 |  | 94.7 | 54.7 | 64.7
CC(C)=NNc1snnc1C(N)=O | > 100 | > 100 | > 100 | > 100 | > 100 | > 100 |  | > 100 | > 100 | > 100 | > 100 | > 100 |  | > 100 | > 100 | > 100 | > 100 | > 100 | > 100 | > 100
C=C1CCCC(C)(C)[C@H]1C/C=C1\CCOC1=O | 39.9 | 38.5 | 30.2 | 29.6 | 33.4 | 35.2 | > 100 | 25.8 |  | 26.2 | 30.4 | 24.5 | 35.2 | 30 | 34.5 | 21.8 |  | 31 | 26.8 | > 100
Cc1ccc(/C=C/C(=N/NC(=O)N/N=C(/C=C/c2ccc(C)cc2)C(C)C)C(C)C)cc1 | > 10 | > 10 | > 10 |  | > 10 | > 10 | > 10 | > 10 | > 10 | > 10 | > 10 | > 10 | > 10 | > 10 |  |  |  |  | > 10 | 
C=C(Cl)/C(=C\Cl)CCC(Cl)C(C)C (stereo not drawn) | > 100 |  | > 100 | > 100 | > 100 | > 100 | > 100 | > 100 | > 100 | > 100 | > 100 | > 100 | > 100 | > 100 | > 100 | > 100 | > 100 | > 100 | > 100 | 
O=C1CCC(=O)N1CNc1ccc2c(c1)S(=O)(=O)c1ccccc1O2 | > 100 | > 100 | > 100 | > 100 | > 100 | > 100 |  | > 100 | > 100 | > 100 | > 100 | > 100 | > 100 | > 100 | > 100 | > 100 |  | > 100 | > 100 | > 100
CCN(CC)Cc1ccccc1CC(=O)N1c2ccccc2C(=O)Nc2cccnc21 | > 100 | > 100 | > 100 | > 100 | > 100 | > 100 | 72.2 | > 100 | > 100 | > 100 | > 100 | > 100 | > 100 | > 100 | > 100 | > 100 |  | > 100 | > 100 | > 100
C[C@@H](CC(=O)O)OC1OC(COC(=O)C(C)(C)C)C(OC(=O)C(C)(C)C)C(OC(=O)C(C)(C)C)C1OC(=O)C(C)(C)C (stereo partly drawn) | > 100 | > 100 | > 100 | > 100 | > 100 | > 100 |  | > 100 | > 100 | > 100 | > 100 | > 100 | > 100 | > 100 | > 100 | 98.4 | > 100 | > 100 | > 100 | > 100
C[C@@H]1[C@H](O)CC2=C(CC[C@@H](O)C2(C)C)[C@@]1(CO)CCc1ccoc1 | > 50 | > 50 | > 50 | > 50 | > 50 | > 50 | > 50 | > 50 | > 50 |  | > 50 | > 50 | > 50 | > 50 | > 50 | > 50 | > 50 | > 50 | > 50 | 
Cc1c2n(c3ccccc13)S(=O)(=O)c1ccccc1-2 |  | 60.1 | 27.4 | > 100 | > 100 |  | > 100 | > 100 | > 100 | > 100 | 37.9 | > 100 | > 100 | 35.6 |  | > 100 |  | 27.4 | > 100 | 
CCOc1ccccc1NC(=O)C(=O)C(/C(=N/N)C(=O)OC)c1nc2ccc([N+](=O)[O-])cc2[nH]c1=O (stereo not drawn) | > 100 | > 100 | > 100 | > 100 |  | > 100 | > 100 | > 100 | > 100 |  | > 100 | > 100 | > 100 | > 100 | > 100 | > 100 | > 100 | > 100 | > 100 | > 100
CC(=O)OC1OC(c2ccoc2)C[C@@]12C1CCC3O[C@]3(C)[C@]1(C)[C@H](OC(C)=O)[C@H](OC(C)=O)[C@H]2C (stereo partly drawn) | > 37.5 | > 37.5 | > 37.5 | > 37.5 | > 37.5 | > 37.5 | > 37.5 | > 37.5 | > 37.5 |  | > 37.5 | > 37.5 | > 37.5 | > 37.5 | > 37.5 | > 37.5 |  | > 37.5 | > 37.5 | 
